Results on 16 compounds are retold here after patent publication US20140120087A1, “TRIAZOLOPYRIDINES” (BAYER INTELLECTUAL PROPERTY GMBH, priority 2011, published 2014).

Data set [1] is described as follows: Hydrolytic stability assay at pH 2. The note with it: buffer pH 2, 37° C., compounds of the invention. The data set is classed as physicochemical. Here is the method:
The hydrolytic stability assay investigates the stability of a compound in an aqueous buffer system. Standard solution stability assay is run in 0.05 M Phosphate buffer at pH 7.4 (pH of blood plasma) at 37° C. As compounds in the GI tract are exposed to a wide variety of pHs any relevant pH (as pH 2 to simulate the acidic condition of the GI tract in the following experiment) can be chosen. Compounds are incubated in relevant solution at 37° C. and analyzed by HPLC immediately after incubation and after 1, 2 and 24 hrs. Degradation rate (decay in %) is calculated by relating peak areas after 1, 2 and 24 hrs to the time zero injection.
Compound is available as 10 mM in DMSO (solution 1). 2.5 μL of solution 1 is dissolved in 1 mL acetonitrile leading to solution 2. Poorly soluble compounds may demand another dilution step of solution 2 (1:5 and 1:10 respectively) in Acetonitrile). Solution 2 is incubated at 37° C. in a tempered HPLC autosampler. 1 mL buffer pH 2 is transferred into an HPLC vial. 100 μL of solution 2 is added to the buffer pH 2 solution and mixed thoroughly. Immediately after mixing the combined solution is injected into the HPLC to give the time zero injection. Injections are repeated after 1, 2 and 24 hrs.
The degradation rate (decay in %) is calculated using HPLC software Millennium and Excel respectively.

In data set [2] the target is T1, Mps-1 kinase (Homo sapiens, UniProt P33981).
T1 sequence (P33981 1-857): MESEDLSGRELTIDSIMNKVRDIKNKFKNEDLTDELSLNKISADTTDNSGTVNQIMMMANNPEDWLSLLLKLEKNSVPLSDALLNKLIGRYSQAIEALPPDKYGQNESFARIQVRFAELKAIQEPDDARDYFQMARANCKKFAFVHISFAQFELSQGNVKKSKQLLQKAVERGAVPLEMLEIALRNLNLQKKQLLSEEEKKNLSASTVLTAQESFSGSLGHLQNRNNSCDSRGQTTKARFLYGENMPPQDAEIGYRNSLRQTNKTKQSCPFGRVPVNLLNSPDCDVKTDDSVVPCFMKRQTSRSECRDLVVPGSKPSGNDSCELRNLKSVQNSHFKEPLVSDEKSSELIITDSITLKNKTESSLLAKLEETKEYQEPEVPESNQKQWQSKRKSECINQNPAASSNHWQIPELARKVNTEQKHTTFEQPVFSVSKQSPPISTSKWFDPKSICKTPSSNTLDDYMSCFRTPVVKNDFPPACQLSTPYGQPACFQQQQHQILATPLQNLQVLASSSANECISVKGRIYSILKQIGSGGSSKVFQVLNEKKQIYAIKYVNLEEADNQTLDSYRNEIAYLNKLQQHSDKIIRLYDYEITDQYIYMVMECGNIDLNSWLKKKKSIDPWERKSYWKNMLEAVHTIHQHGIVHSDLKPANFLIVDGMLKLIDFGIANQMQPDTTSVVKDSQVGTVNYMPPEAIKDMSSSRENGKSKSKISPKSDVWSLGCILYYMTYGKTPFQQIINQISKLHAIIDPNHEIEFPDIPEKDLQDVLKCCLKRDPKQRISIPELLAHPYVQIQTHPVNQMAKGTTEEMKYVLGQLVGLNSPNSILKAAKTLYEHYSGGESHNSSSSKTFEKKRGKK
The data set is described as follows: Mps-1 kinase assay with 2 mM ATP (TR-FRET).

The target in data set [3] is T1, Mps-1 kinase. As to the kind of experiment: Mps-1 kinase assay with 10 μM ATP (TR-FRET).

With `CCNC(=O)c1ccc(Nc2nc3ccc(-c4ccc(C(=O)NCc5cccc(F)c5)cc4)cn3n2)c(OC)c1` [Example 07.1, N-ethyl-4-[(6-{4-[(3-fluorobenzyl)carbamoyl]phenyl}[1,2,4]triazolo[1,5-α]-pyridin-2-yl)amino]-3-methoxybenzamide], the “Hydrolysis at pH 2; Decay in % after 24 h” value (shortened to “Hydrolysis … in % after 24 h”) in data set [1] is on record as under 10%. Further, the half-inhibitory concentration (IC50) is 14 nM against Mps-1 kinase [2] and at most 1 nM at Mps-1 kinase [3].
In the case of `CNCCN(C)C(=O)c1ccc(Nc2nc3ccc(-c4ccc(NC(=O)Cc5ccc(F)cc5)cc4)cn3n2)c(OC)c1` [Example 01.20, 4-{[6-(4-{[(4-fluorophenyl)acetyl]amino}phenyl)[1,2,4]triazolo[1,5-α]-pyridin-2-yl]amino}-3-methoxy-N-methyl-N-[2-(methylamino)ethyl]-benzamide], the “Hydrolysis … in % after 24 h” value in data set [1] is under 10%. In addition, the IC50 against Mps-1 kinase [2] and against Mps-1 kinase [3] was at most 1 nM each time.
Turning to `O=C(Cc1ccc(F)cc1)Nc1ccc(-c2ccc3nc(Nc4ccc(C(=O)NCCO)cc4OCC(F)(F)F)nn3c2)cc1` [Example 01.11, 4-{[6-(4-{[(4-fluorophenyl)acetyl]amino}phenyl)[1,2,4]triazolo[1,5-α]-pyridin-2-yl]amino}-N-(2-hydroxyethyl)-3-(2,2,2-trifluoroethoxy)benzamide], the “Hydrolysis … in % after 24 h” value in data set [1] is under 10%. Moreover, the IC50 at Mps-1 kinase [2] and at Mps-1 kinase [3] was at most 1 nM in each case.
As to `COc1cc(C(=O)NC(C)(C)CO)ccc1Nc1nc2ccc(-c3ccc(C(=O)NCc4ccc(F)cc4)c(F)c3)cn2n1` [Example 03.1, 2-fluoro-N-(4-fluorobenzyl)-4-[2-({4-[(1-hydroxy-2-methylpropan-2-yl)-carbamoyl]-2-methoxyphenyl}amino)[1,2,4]triazolo[1,5-α]pyridin-6-yl]-benzamide], the “Hydrolysis … in % after 24 h” value in data set [1] is listed as under 10%. Also, the IC50 against Mps-1 kinase [2] was 6.9 nM; at Mps-1 kinase [3], at most 1 nM.
Take `COc1cc(C(=O)N(C)CCN(C)C(C)=O)ccc1Nc1nc2ccc(-c3ccc(NC(=O)Cc4ccc(F)cc4)cc3)cn2n1` [Example 01.14, N-{2-[acetyl(methyl)amino]ethyl}-4-{[6-(4-{[(4-fluorophenyl)acetyl]amino}-phenyl)[1,2,4]triazolo[1,5-α]pyridin-2-yl]amino}-3-methoxy-N-methylbenzamide]: the “Hydrolysis … in % after 24 h” value in data set [1] is listed as under 10%. The IC50 against Mps-1 kinase [2] and against Mps-1 kinase [3] was at most 1 nM throughout.
With `CCOc1cc(C(=O)N(C)CCO)ccc1Nc1nc2ccc(-c3ccc(C(=O)NCc4ccc(F)cc4)cc3)cn2n1` [Example 02.12, 3-ethoxy-4-[(6-{4-[(4-fluorobenzyl)carbamoyl]phenyl}[1,2,4]triazolo[1,5-α]pyridin-2-yl)amino]-N-(2-hydroxyethyl)-N-methylbenzamide], in data set [1], the “Hydrolysis … in % after 24 h” value is given as under 10%. Further, the IC50 against Mps-1 kinase [2] and against Mps-1 kinase [3] was at most 1 nM in each case.
As to `CCOc1cc(F)ccc1Nc1nc2ccc(-c3ccc(NC(=O)Cc4ccc(F)cc4)cc3)cn2n1` [Example 01.3, N-(4-{2-[(2-ethoxy-4-fluorophenyl)amino][1,2,4]triazolo[1,5-α]pyridin-6-yl}phenyl)-2-(4-fluorophenyl)acetamide], the “Hydrolysis … in % after 24 h” value in data set [1] was under 10%. Further, the IC50 against Mps-1 kinase [2] was 1.1 nM; against Mps-1 kinase [3] it was at most 1 nM.
With `COc1cc(C(=O)NCC(C)(C)O)ccc1Nc1nc2ccc(-c3ccc(C(=O)NCc4ccc(F)cc4)cc3)cn2n1` [Example 02.5, 4-[(6-{4-[(4-fluorobenzyl)carbamoyl]phenyl}[1,2,4]triazolo[1,5-α]pyridin-2-yl)amino]-N-(2-hydroxy-2-methylpropyl)-3-methoxybenzamide], the “Hydrolysis … in % after 24 h” value in data set [1] was under 10%. Moreover, the IC50 on Mps-1 kinase [2] is 1.8 nM; at Mps-1 kinase [3], at most 1 nM.
For the compound `O=C(NCCO)c1ccc(Nc2nc3ccc(-c4ccc(C(=O)NCc5ccc(F)cc5)cc4)cn3n2)c(OCC(F)(F)F)c1` [Example 02.4, 4-[(6-{4-[(4-fluorobenzyl)carbamoyl]phenyl}[1,2,4]triazolo[1,5-α]pyridin-2-yl)amino]-N-(2-hydroxyethyl)-3-(2,2,2-trifluoroethoxy)benzamide], in data set [1], the “Hydrolysis … in % after 24 h” value is listed as under 10%. The IC50 against Mps-1 kinase [2] and at Mps-1 kinase [3] was at most 1 nM each time.
For `CCOc1cc(C(=O)NCCO)ccc1Nc1nc2ccc(-c3ccc(C(=O)NCc4ccc(F)cc4)cc3)cn2n1` [Example 02.2, 3-ethoxy-4-[(6-{4-[(4-fluorobenzyl)carbamoyl]phenyl}[1,2,4]triazolo[1,5-α]pyridin-2-yl)amino]-N-(2-hydroxyethyl)benzamide], in data set [1], the “Hydrolysis … in % after 24 h” value is reported as under 10%. Besides, the half-inhibitory concentration (IC50) against Mps-1 kinase [2] and on Mps-1 kinase [3] was at most 1 nM each time.
For `CCNC(=O)c1ccc(Nc2nc3ccc(-c4ccc(C(=O)NCC5CC5)cc4)cn3n2)c(OCC(F)(F)F)c1` [Example 06.5, 4-[(6-{4-[(cyclopropylmethyl)carbamoyl]phenyl}[1,2,4]triazolo[1,5-α]-pyridin-2-yl)amino]-N-ethyl-3-(2,2,2-trifluoroethoxy)benzamide], the “Hydrolysis … in % after 24 h” value in data set [1] was under 10%. The figures for the half-maximal inhibitory concentration (IC50) against Mps-1 kinase [2] and against Mps-1 kinase [3] were 19 nM and at most 1 nM, respectively.
Take `COc1cc(S(C)(=O)=O)ccc1Nc1nc2ccc(-c3ccc(C(=O)NCc4ccc(F)cc4)cc3)cn2n1` [Example 02.6, N-(4-fluorobenzyl)-4-(2-{[2-methoxy-4-(methylsulfonyl)phenyl]amino}-[1,2,4]triazolo[1,5-α]pyridin-6-yl)benzamide]: the “Hydrolysis … in % after 24 h” value in data set [1] is on record as under 10%. Further, the values for the IC50 against Mps-1 kinase [2] and against Mps-1 kinase [3] were 4.3 nM and at most 1 nM, respectively.
Turning to `COc1cc(C(=O)NC(C)(C)CO)ccc1Nc1nc2ccc(-c3ccc(C(=O)NCc4ccc(F)cc4)c(C)c3)cn2n1` [Example 04.1, N-(4-fluorobenzyl)-4-[2-({4-[(1-hydroxy-2-methylpropan-2-yl)carbamoyl]-2-methoxyphenyl}amino)[1,2,4]triazolo[1,5-α]pyridin-6-yl]-2-methylbenz-amide], the “Hydrolysis … in % after 24 h” value in data set [1] is listed as under 10%. Also, the IC50 at Mps-1 kinase [2] was 16 nM; against Mps-1 kinase [3] it was at most 1 nM.
Take `COc1cc(C(=O)NCCS(C)(=O)=O)ccc1Nc1nc2ccc(-c3ccc(C(=O)NCc4ccc(F)cc4)cc3)cn2n1` [Example 02.15, 4-[(6-{4-[(4-fluorobenzyl)carbamoyl]phenyl}[1,2,4]triazolo[1,5-α]pyridin-2-yl)amino]-3-methoxy-N-[2-(methylsulfonyl)ethyl]benzamide]: the “Hydrolysis … in % after 24 h” value in data set [1] was under 10%. Also, the half-maximal inhibitory concentration (IC50) against Mps-1 kinase [2] and at Mps-1 kinase [3] was at most 1 nM in each case.
Turning to `CCN(CC)C(=O)c1ccc(Nc2nc3ccc(-c4ccc(NC(=O)Cc5ccc(F)cc5)cc4)cn3n2)c(OC)c1` [Example 01.1, N,N-diethyl-4-{[6-(4-{[(4-fluorophenyl)acetyl]amino}phenyl)[1,2,4]-triazolo[1,5-α]pyridin-2-yl]amino}-3-methoxybenzamide], the “Hydrolysis … in % after 24 h” value in data set [1] is reported as under 10%. In addition, the figures for the IC50 against Mps-1 kinase [2] and against Mps-1 kinase [3] were 1.2 nM and at most 1 nM, respectively.
On the same counts, the results for `CNC(=O)c1ccc(Nc2nc3ccc(-c4ccc(C(=O)NCc5ccc(F)cc5)cc4)cn3n2)c(OC)c1` [Example 02.13, 4-[(6-{4-[(4-fluorobenzyl)carbamoyl]phenyl}[1,2,4]triazolo[1,5-α]pyridin-2-yl)amino]-3-methoxy-N-methylbenzamide] are under 10%, at most 1 nM and at most 1 nM.
